Where two headings read alike, the source gives them in different places.
Assays:
H358 cells [1] = conditions: 24 hours, gefitinib 1 μmol/L, dasatinib 500 nmol/L, or the combination
[2] = tested on: pAkt, pSTAT3, cleaved PARP in H1975 cells; test: Western analysis of pAkt, pSTAT3 and cleaved PARP; format: cell-based, Human; conditions: 24 hours
A549 cells [3] = test: Cell cycle profile and cyclin D/p27 Western analysis; format: cell-based, Human; conditions: 24 hours, gefitinib 1 μmol/L, dasatinib 500 nmol/L; for cell cycle profile: FIG. 12; for cyclin D3 and p27 proteins: FIG. 13
[4] = tested on: pTyr416 Src (pSrc) family in H1650 cells; test: Western analysis of Src phosphorylation status; format: cell-based, Human
[5] = tested on: pTyr416 Src (pSrc) family in H1975 cells; test: Western analysis of Src phosphorylation status; format: cell-based, Human; conditions: 24 hours, dasatinib at 50 nmol/L
[6] = tested on: pAkt, cleaved PARP in PC9 cells; test: Western analysis of pAkt, pSTAT3 and cleaved PARP; format: cell-based, Human; conditions: 24 hours; for PARP cleavage: gefitinib at 50 nmol/L, dasatinib at increasing concentrations
[7] = tested on: pAkt, pSTAT3, cleaved PARP in H1650 cells; test: Western analysis of pAkt, pSTAT3 and cleaved PARP; format: cell-based, Human; conditions: 24 hours; for pSTAT3: H1650, any growth conditions
[8] = tested on: pTyr416 Src (pSrc) family in PC9 cells; test: Western analysis of Src phosphorylation status; format: cell-based, Human; conditions: 24 hours
[9] = tested on: lung cancer cells with EGFR mutation that are resistant to EGFR TKI; test: Apoptosis and cell cycle in cells with acquired resistance to erlotinib; format: cell-based, Human; conditions: EGFR mutant cells resistant to EGFR TKI
H441 cells [10] = test: Combination effect in cell viability assays, median dose effect method; format: cell-based, Human; conditions: dose range used
Procedure: Combination effects were evaluated by median dose effect method.

A549 cells [11] = test: MTT assay after 120 hours, IC50; format: cell-based; conditions: Homo sapiens, A549, 120 h, read-out: EGFR TKI IC50 (Nm)
Text: Cell lines and cell culture. […] Gefitinib was provided by AstraZeneca (Wilmington, Del.) and dasatinib by Bristol-Myers Squibb Oncology (Princeton, N.J.).
Cytotoxicity and apoptosis assays. Cytotoxicity assays [3-(4,5-dimethylthiazol-2-yl)-2,5-diphenyltetrazolium bromide] were done according to the manufacturer's recommendations (Roche, Indianapolis, Ind.). Cells (5×10^3) in medium with 5% BCS were placed into single wells in a 96-well plate and exposed to indicated agents, and viability was assessed after 72 hours. Data presented represent three separate experiments with eight data points per concentration per experiment. […] Data are expressed as mean±SD.

H1299 cells = test: MTT assay after 120 hours, IC50; format: cell-based, Human; conditions: for IC50: Homo sapiens, NCI-H1299, 120 h
Text: (§1) Cell lines and cell culture. Human lung cancer cell lines were maintained in RPMI 1640 plus 5% bovine calf serum (BCS). H3255 cells were provided by Dr. Pasi Janne (Dana-Farber, Boston, Mass.) and grown in ACL-4 medium (12). HCC827 cells were provided by Dr. Jon Kurie (M. D. Anderson, Houston, Tex.). PC9 cells were provided by Dr. Matthew Lazzara (Massachusetts Institute of Technology, Boston, Mass.). […]. Gefitinib was provided by AstraZeneca (Wilmington, Del.) and dasatinib by Bristol-Myers Squibb Oncology (Princeton, N.J.). For cell transfection experiments, 2×10^6 HEK293 cells in a 6-cm dish maintained in DMEM/10% BCS were transfected with 1 Ag plasmid DNA for 3 hours using LipofectAMINE 2000 (Invitrogen, Carlsbad, Calif.) and then allowed to go 24 hours before being treated with inhibitors.
(§2) Cytotoxicity and apoptosis assays. Cytotoxicity assays [3-(4,5-dimethylthiazol-2-yl)-2,5-diphenyltetrazolium bromide] were done according to the manufacturer's recommendations (Roche, Indianapolis, Ind.). […] Data presented represent three separate experiments with eight data points per concentration per experiment. Apoptosis [PharMingen (San Diego, Calif.) Apo-BrdU kit] and cell cycle changes (propidium iodide staining and flow cytometry) were assayed as before (13). Data are expressed as mean±SD.

H322 cells = test: MTT assay after 120 hours, IC50; format: cell-based, Human; conditions: for IC50: Homo sapiens, NCI-H322, 120 h
Text: as §1, §2

H292 cells = test: MTT assay after 120 hours, IC50; format: cell-based, Human; conditions: for IC50: Homo sapiens, NCI-H292, 120 h
Text: as §1, §2

H358 cells [12] = test: MTT assay after 120 hours, IC50; format: cell-based, Human; conditions: for IC50: Homo sapiens, NCI-H358, 120 h
Text: as §1, §2

H157 cells = test: MTT assay after 120 hours, IC50; format: cell-based, Human; conditions: for IC50: Homo sapiens, NCI-H157, 120 h
Text: as §1, §2

H1648 cells = test: MTT assay after 120 hours, IC50; format: cell-based, Human; conditions: for IC50: Homo sapiens, NCI-H1648, 120 h
Text: as §1, §2

H460 cells = test: MTT assay after 120 hours, IC50; format: cell-based; conditions: Homo sapiens, NCI-H460, 120 h
Text: as §1, §2

H441 cells [13] = test: MTT assay after 120 hours, IC50; format: cell-based; conditions: Homo sapiens, NCI-H441, 120 h
Text: as §1, §2

H23 cells = test: MTT assay after 120 hours, IC50; format: cell-based; conditions: Homo sapiens, NCI-H23, 120 h
Text: as §1, §2

H2122 cells = test: MTT assay after 120 hours, IC50; format: cell-based; conditions: Homo sapiens, NCI-H2122, 120 h
Text: as §1, §2

H226 cells = test: MTT assay after 120 hours, IC50; format: cell-based; conditions: Homo sapiens, NCI-H226, 120 h
Text: as §1, §2

[14] = tested on: pFAK, pSTAT3, pAkt, pERK in A549 cells; test: Western analysis of pFAK, pSTAT3, pAkt, pERK; format: cell-based, Human; conditions: 500 nmol/L, 3 hours
[15] = tested on: pAkt, pSTAT3, cleaved PARP in H3255 cells; test: Western analysis of pAkt, pSTAT3 and cleaved PARP; format: cell-based, Human; conditions: increasing concentrations, 24 hours
[16] = dosing for CML; ODAC briefing document; cited from earlier work
H1650 cells = test: Cell viability, dasatinib compared with gefitinib, 72 hours; format: cell-based, Human; conditions: H1650 grown in 5% BCS, FIG. 6
Procedure: FIG. 6. presents a series of four graphs, with each graph representative of a different cell line as indicated at the top of the graph.
Cytotoxicity and apoptosis assays. Cytotoxicity assays [3-(4,5-dimethylthiazol-2-yl)-2,5-diphenyltetrazolium bromide] were done according to the manufacturer's recommendations (Roche, Indianapolis, Ind.). Cells (5×10^3) in medium with 5% BCS were placed into single wells in a 96-well plate and exposed to indicated agents, and viability was assessed after 72 hours. Data presented represent three separate experiments with eight data points per concentration per experiment. Apoptosis [PharMingen (San Diego, Calif.) Apo-BrdU kit] and cell cycle changes (propidium iodide staining and flow cytometry) were assayed as before (13). Data are expressed as mean±SD.

[17] = tested on: imatinib-resistant BCR-ABL mutants; conditions: number of mutants / mutants tested; cited from earlier work
[18] = H1650 grown in 5% BCS, dasatinib at 50 nmol/L
[19] = H1650 in low serum with exogenous EGF, 50 nmol/L

Compound: COc1cc2ncnc(Nc3ccc(F)c(Cl)c3)c2cc1OCCCN1CCOCC1 [gefitinib]
- G1 cell cycle arrest (H358 cells [1]): G1 cell cycle arrest to the same extent
- cyclins D1 and D3 and p27 protein levels (H358 cells [1]): reduced cyclins D1 and D3 and increased p27 protein levels
- PARP cleavage [2]: no PARP cleavage
- pAkt or pSTAT3 [2]: neither gefitinib nor dasatinib affects
- cell cycle profile (A549 cells [3]): no effect
- cyclin D3 and p27 proteins (A549 cells [3]): no changes
- pSrc ([4]; H1650, increasing concentrations, 24 hours): incomplete
- pSrc [5]: minimal changes
- pAkt ([6]; 50 nmol/L): completely inhibits pAkt
- PARP cleavage [6]: induces PARP cleavage
- pSTAT3 [7]: No effect
- PARP cleavage ([7]; H1650 grown in 5% BCS): degree of PARP cleavage is less
- pAkt [7, 18]: minimal effect on pAkt
- pAkt [7, 19]: inhibit pAkt
- pSrc ([8]; 250 nmol/L): decrease in pSrc
- pSrc ([8]; 1 μmol/L): incomplete

Compound: C#Cc1cccc(Nc2ncnc3cc(OCCOC)c(OCCOC)cc23)c1 [erlotinib]
- cell cycle [9]: no observable effect on cell cycle
- effect on cell viability (H441 cells [10]): no effect
- IC50 (A549 cells [11]): > 2000 nM
- IC50 (H1299 cells; read-out: EGFR TKI IC50 (Nm)): > 2000 nM
- IC50 (H322 cells; read-out: EGFR TKI IC50 (Nm)): 135 nM
- EGFR TKI Sensitivity (H322 cells; erlotinib, H322, BAC, EGFR WT, MTT 120 hours): S (EGFR TKI Sensitivity Definition: Reported IC50 < or = 1 μM)
- IC50 (H292 cells; read-out: EGFR TKI IC50 (Nm)): 63.4 nM
- EGFR TKI Sensitivity (H292 cells; erlotinib, H292, Squamous, EGFR WT, MTT 120 hours): S (EGFR TKI Sensitivity Definition: Reported IC50 < or = 1 μM)
- IC50 (H358 cells [12]; read-out: EGFR TKI IC50 (Nm)): 199 nM
- EGFR TKI Sensitivity (H358 cells [12]; erlotinib, H358, BAC, EGFR WT, MTT 120 hours): S (EGFR TKI Sensitivity Definition: Reported IC50 < or = 1 μM)
- IC50 (H157 cells; read-out: EGFR TKI IC50 (Nm)): > 2000 nM
- IC50 (H1648 cells; read-out: EGFR TKI IC50 (Nm)): 75.8 nM
- EGFR TKI Sensitivity (H1648 cells; erlotinib, H1648, Adeno, EGFR WT, MTT 120 hours): S (EGFR TKI Sensitivity Definition: Reported IC50 < or = 1 μM)
- IC50 (H460 cells; read-out: EGFR TKI IC50 (Nm)): > 2000 nM
- IC50 (H441 cells [13]; read-out: EGFR TKI IC50 (Nm)): > 2000 nM
- IC50 (H23 cells; read-out: EGFR TKI IC50 (Nm)): > 2000 nM
- IC50 (H2122 cells; read-out: EGFR TKI IC50 (Nm)): 748 nM
- IC50 (H226 cells; read-out: EGFR TKI IC50 (Nm)): > 2000 nM

Compound: Cc1nc(Nc2ncc(C(=O)Nc3c(C)cccc3Cl)s2)cc(N2CCN(CCO)CC2)n1 [dasatinib, N-(2-chloro-6-methylphenyl)-2-[[6-[4-[(2-hydroxyethyl)-1-pipperazinyl]-2-methyl-4-pyrimidinyl]amino]-5-thiazolecarboxamide, monohydrate]
- G1 cell cycle arrest (H358 cells [1]): G1 cell cycle arrest to the same extent
- cyclins D1 and D3 and p27 protein levels (H358 cells [1]): reduced cyclins D1 and D3 and increased p27 protein levels
- pFAK [14]: reduction in pFAK
- pSTAT3, pAkt, or pERK [14]: no significant reductions
- PARP cleavage [2]: no PARP cleavage
- pAkt or pSTAT3 [2]: neither gefitinib nor dasatinib affects
- cell cycle profile (A549 cells [3]): cell cycle arrest characterized by increased G1 fraction and reduced S-phase fraction
- cyclin D3 and p27 proteins (A549 cells [3]): decline in cyclin D3 and an increase in p27
- autophosphorylation of Tyr416 on Src family members (pSrc) ([4]; H1650 cells, 50 nmol/L, monohydrate): completely inhibits pSrc
- pSrc [5]: completely inhibits the low levels of pSrc
- effect on cell viability (H441 cells [10]): no effect
- PARP cleavage [6]: associated changes in PARP cleavage
- pAkt ([6]; increasing concentrations): dose-dependent inhibition of pAkt
- PARP cleavage [15]: increase in PARP cleavage
- pAkt and pSTAT3 [15]: concentration-dependent decrease of both pAkt and pSTAT3
- Cmax [16]: 60 to 120 nM
- pSTAT3 [7]: No effect
- PARP cleavage ([7]; H1650 grown in 5% BCS): induction of PARP cleavage
- pAkt [7, 18]: inhibits pAkt
- pAkt [7, 19]: inhibit pAkt
- degree of PARP cleavage, dasatinib versus gefitinib ([7]; H1650 in low serum with exogenous EGF): degree of PARP cleavage is higher
- SRC Sensitivity (H1299 cells; H1299, Large Cell, EGFR WT, MTT 120 hours): S (SRC TKI Sensitivity Definition: IC50 less than 100 nM)
- IC50 (H1299 cells; read-out: Dasatinib IC50 (Nm)): 31.6 nM
- SRC Sensitivity (H322 cells; H322, BAC, EGFR WT, MTT 120 hours): S (SRC TKI Sensitivity Definition: IC50 less than 100 nM)
- IC50 (H322 cells; read-out: Dasatinib IC50 (Nm)): 11.6 nM
- SRC Sensitivity (H292 cells; H292, Squamous, EGFR WT, MTT 120 hours): S (SRC TKI Sensitivity Definition: IC50 less than 100 nM)
- IC50 (H292 cells; read-out: Dasatinib IC50 (Nm)): 28.4 nM
- SRC Sensitivity (H358 cells [12]; H358, BAC, EGFR WT, MTT 120 hours): S (SRC TKI Sensitivity Definition: IC50 less than 100 nM)
- IC50 (H358 cells [12]; read-out: Dasatinib IC50 (Nm)): 27.4 nM
- SRC Sensitivity (H157 cells; H157, Squamous, EGFR WT, MTT 120 hours): S (SRC TKI Sensitivity Definition: IC50 less than 100 nM)
- IC50 (H157 cells; read-out: Dasatinib IC50 (Nm)): 48.9 nM
- SRC Sensitivity (H1648 cells; H1648, Adeno, EGFR WT, MTT 120 hours): S (SRC TKI Sensitivity Definition: IC50 less than 100 nM)
- IC50 (H1648 cells; read-out: Dasatinib IC50 (Nm)): 20.9 nM
- pSrc ([8]; 50 nmol/L): inhibits pSrc
- IC50 (H460 cells; read-out: Dasatinib IC50 (Nm)): > 2000 nM
- IC50 (H441 cells [13]; read-out: Dasatinib IC50 (Nm)): > 2000 nM
- IC50 (H23 cells; read-out: Dasatinib IC50 (Nm)): > 2000 nM
- IC50 (H2122 cells; read-out: Dasatinib IC50 (Nm)): 486 nM
- IC50 (H226 cells; read-out: Dasatinib IC50 (Nm)): 709 nM
- cell viability, dasatinib versus gefitinib (H1650 cells): inhibited cell viability more than gefitinib

Compound: Cc1cn(-c2cc(NC(=O)c3ccc(C)c(Nc4nccc(-c5cccnc5)n4)c3)cc(C(F)(F)F)c2)cn1 [AMN107]
- imatinib-resistant BCR-ABL mutants against which significantly active [17]: 32/33
